Reference: article PMC8041284, “Tunable Methacrylamides for Covalent Ligand Directed Release Chemistry” (Journal of the American Chemical Society, 2021)

Target: BTK (Homo sapiens, UniProt Q06187)
Experiment: biochemical
Settings: read-out: BTK inhibition (%), 0.75 uM BTK, […] probe 3l, 15 min preincubation

Sequence of BTK (Q06187 402-655 limits assumed): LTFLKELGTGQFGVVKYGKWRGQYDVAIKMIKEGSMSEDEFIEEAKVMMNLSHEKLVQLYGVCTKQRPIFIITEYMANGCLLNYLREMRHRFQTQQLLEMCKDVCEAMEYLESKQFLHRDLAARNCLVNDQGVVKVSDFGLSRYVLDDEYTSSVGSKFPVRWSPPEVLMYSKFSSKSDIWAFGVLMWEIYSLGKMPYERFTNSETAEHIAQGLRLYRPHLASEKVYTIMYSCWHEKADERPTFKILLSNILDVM

| SMILES | inhibition at 10 µM [%] |
| --- | --- |
| CC(C)(C#N)c1cc(Cn2cncn2)cc(C(C)(C)C#N)c1 [PCM-0086178] | -11 |
| CCOC(=O)NC/C=C/c1ccc2ncnc(Nc3ccc(Oc4ccc(C)nc4)c(C)c3)c2c1 [PCM-0095019] | -15.9 |
| COc1ccc(-c2nc(N3CCOCC3)c3sc(CN(C)c4ncc(C(=O)NO)cn4)cc3n2)cn1 [PCM-0095517] | 15.2 |
| Nc1nc(N)c2nc(-c3cccc(O)c3)c(-c3cccc(O)c3)nc2n1 [PCM-0094971] | 55.2 |
| Cc1c(C)c(NCC(=O)N(C)C2CCN(Cc3ccc(C(N)=O)cc3)CC2)c(C)c(C)c1N [PCM-0215800] | 12.4 |
| Nc1ccn([C@@H]2CS[C@H](CO)O2)c(=O)n1 [PCM-0085971] | 14 |
| CC1(C)OCCn2c1nc1c(N3CCOCC3)nc(-c3cnc(N)nc3)nc12 [PCM-0215737] | 37.9 |
| O[C@@H](CNC[C@H](O)[C@H]1CCc2cc(F)ccc2O1)[C@@H]1CCc2cc(F)ccc2O1 [PCM-0095721] | -14 |
| O=C(CCCCCCNC(=O)c1cnc(N(c2ccccc2)c2ccccc2Cl)nc1)NO [PCM-0214593] | -6.9 |
| NC(N)=NCCCC(N)C(=O)O (stereo not drawn) [PCM-0064685] | -17 |
| Nc1ncn([C@@H]2O[C@H](CO)[C@@H](O)[C@H]2O)c(=O)n1 [PCM-0064526] | -6.2 |
| CC(C)(Oc1ccc(C2CC2(Cl)Cl)cc1)C(=O)O (stereo not drawn) [PCM-0064433] | -14 |
| CCc1c(C(=O)C(N)=O)c2c(OCC(=O)O)cccc2n1Cc1ccccc1 [PCM-0094894] | -16.3 |
| COc1cc(CCC(C)=O)ccc1O [PCM-0094824] | -0.8 |
| COc1ccc(-c2cc(=O)c3c(OC)c(OC)c(OC)c(OC)c3o2)cc1OC [PCM-0091108] | 2.3 |
| CC1(C)[C@@H](OC(=O)CCC(=O)O)CC[C@]2(C)[C@H]3C(=O)C=C4[C@@H]5C[C@@](C)(C(=O)O)CC[C@]5(C)CC[C@@]4(C)[C@]3(C)CC[C@@H]12 [PCM-0215252] | 26.5 |
| Cc1cc(C(=O)Nc2nc3cccc(Cl)c3n2[C@@H]2CCCCN(C(=O)/C=C/CN(C)C)C2)ccn1 [PCM-0215804] | 73.8 |
| COC[C@H]1C[C@@H](c2ncc(-c3ccc4c(c3)COc3cc5c(ccc6[nH]c([C@@H]7CC[C@H](C)N7C(=O)[C@@H](NC(=O)OC)C(C)C)nc65)cc3-4)[nH]2)N(C(=O)[C@H](NC(=O)OC)c2ccccc2)C1 [PCM-0214920] | 56 |
| CN1C[C@@H]2c3ccccc3Oc3ccc(Cl)cc3[C@H]2C1 [PCM-0095064] | 9.3 |
| COc1ccc2c(c1)/C(=C/c1cnc[nH]1)C(=O)N2 [PCM-0101915] | 47.6 |
| COC(=O)c1ccc(O)c(OC)c1 [PCM-0214879] | -12.5 |

Further lines, results first:

| inhibition at 10 µM [%] | SMILES |
| --- | --- |
| 13.9 | Nc1nc(N)nc(N)n1 [PCM-0216468] |
| 6.2 | Cc1[nH]nc2ncc(C(=O)N3CCC[C@H]3c3ccc(Cl)cc3)cc12 [PCM-0215837] |
| 20.8 | O=C(O)CNC(=O)c1ccccc1 [PCM-0216220] |
| 38.6 | Cc1cc(O)c(-c2ccc([C@@H](C)CN(C)C)cc2)c2c1[nH]c(=O)c1sccc12 [PCM-0215805] |
| 14.7 | CC(C)=C1CC[C@@H](C)CC1=O [PCM-0216421] |
| 32.4 | O=c1cc(-c2ccc(O)cc2)oc2cccc(O)c12 [PCM-0216294] |
| 0.8 | O=C(O)CCn1c(O)c(C2=c3cc(Cl)ccc3=NC2=O)sc1=S [PCM-0215854] |
| 1.5 | O=C1O[C@H]([C@H](O)CO)C(O)=C1O [PCM-0215957] |
| -13.1 | C[C@H](N=C(NC#N)Nc1cccc2ncccc12)c1ccccc1 [PCM-0216092] |
| 10.8 | CC1(C)CC[C@]2(C(=O)O)CCC3=C(CC[C@@H]4[C@@]5(C)C[C@H](O)[C@H](O)[C@@](C)(C(=O)O)[C@@H]5CC[C@@]34C)[C@@H]2C1 [PCM-0216490] |
| 16.2 | CC(C)=CC(=O)O[C@H]1Cc2cc3ccc(=O)oc3cc2OC1(C)C [PCM-0216507] |
| 13.8 | CC(C)(C)C(=O)N1N=CC[C@H]1c1ccccc1 [PCM-0216112] |
